Source: patent publication US11427552B2, “Heterocyclic compounds useful in the treatment of disease” (EPIGEN BIOSCIENCES, INC., priority 2013, dated 2022)
Where “and” joins values, the source holds several entries; their conditions need not be identical. Equal values may be shown once.

molecular target: T1, LPA1R (Homo sapiens, UniProt Q92633); assay: LPA1R Ca2+ flux functional assay (antagonist mode, FLIPR); format: cell-based; conditions: inhibition of LPA-stimulated Ca2+ flux, LPA at EC80, LPA1R expressing cells (Millipore); read-out: LPA1 R Antagonist Activity
T1 construct: host or cells: LPA1R expressing cells (Millipore, GPCR Profiler)
T1 sequence (Q92633 whole entry): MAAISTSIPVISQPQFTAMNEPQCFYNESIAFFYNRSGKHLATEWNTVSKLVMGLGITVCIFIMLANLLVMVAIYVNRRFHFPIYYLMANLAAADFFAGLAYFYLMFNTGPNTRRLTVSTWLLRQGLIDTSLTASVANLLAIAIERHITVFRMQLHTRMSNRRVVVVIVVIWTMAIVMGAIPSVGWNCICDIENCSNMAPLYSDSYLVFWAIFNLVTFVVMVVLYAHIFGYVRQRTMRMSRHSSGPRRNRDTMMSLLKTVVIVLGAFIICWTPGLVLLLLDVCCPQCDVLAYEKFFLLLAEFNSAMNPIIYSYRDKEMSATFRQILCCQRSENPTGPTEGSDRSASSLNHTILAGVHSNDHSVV
Protocol: Inhibition of LPA-stimulated Ca^2+ flux was used to assess compound potency using FLIPR technology in a 96 well plate format. The assay buffer used was a modified Hanks Balanced Salt Solution (HBSS) where HBSS was supplemented to contain 20 mM HEPES and 2.5 mM Probenecid at pH7.4 (Millipore, GPCR Profiler®). LPA1R expressing cells (Millipore) were plated and prepared 24 hours prior to assay of test articles. Ca^2+ ion flux was assessed from fluorescence of a Fluo-based No Wash Ca^2+ dye. Antagonist data are generated from plates with LPA concentrations sufficient to generate 80% efficacy [EC80]. Percentage inhibition was calculated from a reduction of efficacy according to concentration of compounds of Formula I-VI. For dose responses the inhibition data was used to calculate compound IC50. The agonist assay was conducted on a FLIPR^TETRA instrument where the test compound(s), vehicle controls, and reference agonist were added to the assay plate after a fluorescence baseline was established. The agonist assay was a total of 180 seconds and was used to assess each compound's ability to activate each GPCR assayed. Upon completion of the agonist assay, the assay plate was removed from the FLIPR^TETRA and incubated at 25° C. for seven (7) minutes. After the incubation period, the assay plate was placed back in the FLIPR^TETRA and the antagonist assay was initiated. Using EC80 potency values determined during the agonist assay, all pre-incubated sample compound wells were challenged with EC80 concentration of reference agonist after establishment of a fluorescence baseline. The antagonist assay was conducted using the same assay plate that was used for the agonist assay. The antagonist assay was conducted on a FLIPR^TETRA instrument where 9 vehicle controls and EC80 concentration of reference agonist were added to appropriate wells. The antagonist assay was a total of 180 seconds and was used to assess each compound's ability to inhibit each GPCR assayed. All assay plate data were subjected to appropriate baseline corrections. After baseline corrections were applied, maximum fluorescence values were exported and data processed to calculate percentage activation (relative to Emax reference agonist and vehicle control values), percentage inhibition (relative to EC80 and vehicle control values), and additional statistical values (i.e. Z′, percentage variation between replicate data values) to assess the quality of each plate. Where assay plate data were rejected, additional experiments were conducted. All dose response curves were generated using GraphPad Prism. The curves were fit by utilizing “Sigmoidal Dose Response (Variable Slope)” equation where the bottom parameter was fixed to “0.” Where appropriate, the top parameter was fixed to “100” to better predict potency values when a full curve was not generated by the concentrations assayed.

SMILES | IC50
Cc1noc(-c2ccc(C(=O)N[C@H](Cc3ccccc3F)C(=O)O)cc2)c1NC(=O)O[C@H](C)c1ccccc1Cl [Example 26, (R)-2-(4-{4-[(R)-1-(2-Chloro-phenyl)-ethoxycarbonylamino]-3-methyl-isoxazol-5-yl}-benzoylamino)-3-(2-fluoro-phenyl)-propionic Acid] | < 300 nM
Cc1ccc(C[C@@H](NC(=O)c2ccc(-c3onc(C)c3NC(=O)O[C@H](C)c3ccccc3Cl)cc2)C(=O)O)cc1 [Example 27, (R)-2-(4-{4-[(R)-1-(2-Chloro-phenyl)-ethoxycarbonylamino]-3-methyl-isoxazol-5-yl}-benzoylamino)-3-p-tolyl-propionic Acid] | < 300 nM
Cc1noc(-c2ccc(C(=O)N[C@H](Cc3ccc(C(F)(F)F)cc3)C(=O)O)cc2)c1NC(=O)O[C@H](C)c1ccccc1Cl [Example 28, (R)-2-(4-{4-[(R)-1-(2-Chloro-phenyl)-ethoxycarbonylamino]-3-methyl-isoxazol-5-yl}-benzoylamino)-3-(4-trifluoromethyl-phenyl)-propionic Acid] | < 300 nM
Cc1noc(-c2ccc(C(=O)N[C@H](Cc3ccc(C#N)cc3)C(=O)O)cc2)c1NC(=O)O[C@H](C)c1ccccc1Cl [Example 29, (R)-2-(4-{4-[(R)-1-(2-Chloro-phenyl)-ethoxycarbonylamino]-3-methyl-isoxazol-5-yl}-benzoylamino)-3-(4-cyano-phenyl)-propionic Acid] | 1000 to 50000 nM
Cc1cnn(-c2ccc(C(=O)N[C@H](Cc3ccccc3)C(=O)O)cc2)c1NC(=O)O[C@H](C)c1ccccc1Cl [Example 30, (R)-2-(4-{5-[(R)-1-(2-Chloro-phenyl)-ethoxycarbonylamino]-4-methyl-pyrazol-1-yl}-benzoylamino)-3-phenyl-propionic Acid] | > 50000 nM and 1000 to 50000 nM
Cc1noc(-c2ccc(CN[C@H](Cc3ccccc3)C(=O)O)cc2)c1NC(=O)O[C@H](C)c1ccccc1 [Example 31, (R)-2-{4-[3-Methyl-4-((R)-1-phenyl-ethoxycarbonylamino)-isoxazol-5-yl]-benzylamino}-3-phenyl-propionic Acid] | < 300 nM
Cc1noc(-c2ccc(CN[C@H](Cc3ccccc3F)C(=O)O)cc2)c1NC(=O)O[C@H](C)c1ccccc1 [Example 32, (R)-3-(2-Fluoro-phenyl)-2-{4-[3-methyl-4-((R)-1-phenyl-ethoxycarbonylamino)-isoxazol-5-yl]-benzylamino}-propionic Acid] | < 300 nM
Cc1noc(-c2ccc(CN[C@H](Cc3ccc(C(F)(F)F)cc3)C(=O)O)cc2)c1NC(=O)O[C@H](C)c1ccccc1 [Example 33, (R)-2-{4-[3-Methyl-4-((R)-1-phenyl-ethoxycarbonylamino)-isoxazol-5-yl]-benzylamino}-3-(4-trifluoromethyl-phenyl)-propionic Acid] | < 300 nM
Cc1noc(-c2ccc(CN[C@H](CC3CC3)C(=O)O)cc2)c1NC(=O)O[C@H](C)c1ccccc1 [Example 34, (R)-3-Cyclopropyl-2-{4-[3-methyl-4-((R)-1-phenyl-ethoxycarbonylamino)-isoxazol-5-yl]-benzylamino}-propionic acid] | < 300 nM
Cc1noc(-c2ccc(CN[C@H](Cc3ccccc3Cl)C(=O)O)cc2)c1NC(=O)O[C@H](C)c1ccccc1 [Example 35, (R)-3-(2-Chloro-phenyl)-2-{4-[3-methyl-4-((R)-1-phenyl-ethoxycarbonylamino)-isoxazol-5-yl]-benzylamino}-propionic Acid] | < 300 nM
Cc1noc(-c2ccc(CN[C@H](Cc3ccc(Cl)cc3)C(=O)O)cc2)c1NC(=O)O[C@H](C)c1ccccc1 [Example 36, (R)-3-(4-Chloro-phenyl)-2-{4-[3-methyl-4-((R)-1-phenyl-ethoxycarbonylamino)-isoxazol-5-yl]-benzylamino}-propionic Acid] | < 300 nM
Cc1noc(-c2ccc(CN[C@H](Cc3ccccc3)C(=O)O)cc2)c1NC(=O)O[C@H](C)c1ccccc1Cl [Example 37, (R)-2-(4-{4-[(R)-1-(2-Chloro-phenyl)-ethoxycarbonylamino]-3-methyl-isoxazol-5-yl}-benzylamino)-3-phenyl-propionic Acid] | < 300 nM

Results, then the molecule that gave them:

IC50 | SMILES
< 300 nM | Cc1noc(-c2ccc(CNC(Cc3ccccc3F)C(=O)O)cc2)c1NC(=O)OC(C)c1ccccc1Cl [Example 38, (R)-2-(4-{4-[(R)_1-(2-Chloro-phenyl)-ethoxycarbonylamino]-3-methyl-isoxazol-5-yl}-benzylamino)-3-(2-fluoro-phenyl)-propionic Acid]
< 300 nM | Cc1noc(-c2ccc(CN[C@H](Cc3ccc(C(F)(F)F)cc3)C(=O)O)cc2)c1NC(=O)O[C@H](C)c1ccccc1Cl [Example 39, (R)-2-(4-{4-[(R)-1-(2-Chloro-phenyl)-ethoxycarbonylamino]-3-methyl-isoxazol-5-yl}-benzylamino)-3-(4-trifluoromethyl-phenyl)-propionic Acid]
< 300 nM | Cc1noc(-c2ccc(CN[C@H](Cc3ccccc3Cl)C(=O)O)cc2)c1NC(=O)O[C@H](C)c1ccccc1Cl [Example 40, (R)-3-(2-Chloro-phenyl)-2-(4-{4-[(R)-1-(2-chloro-phenyl)-ethoxycarbonylamino]-3-methyl-isoxazol-5-yl}-benzylamino)-propionic Acid]
< 300 nM | Cc1noc(-c2ccc(CN[C@H](CC3CC3)C(=O)O)cc2)c1NC(=O)O[C@H](C)c1ccccc1Cl [Example 41, (R)-2-(4-{4-[(R)-1-(2-Chloro-phenyl)-ethoxycarbonylamino]-3-methyl-isoxazol-5-yl}-benzylamino)-3-cyclopropyl-propionic Acid]
< 300 nM | Cc1noc(-c2ccc(COC(Cc3ccccc3)C(=O)O)cc2)c1NC(=O)O[C@H](C)c1ccccc1 (stereo partly drawn) [Example 42, 2-{4-[3-Methyl-4-((R)-1-phenyl-ethoxycarbonylamino)-isoxazol-5-yl]-benzyloxy}-3-phenyl-propionic Acid]
300 to 1000 nM | Cc1noc(-c2ccc(COC(Cc3ccccc3)C(=O)O)cc2)c1NC(=O)O[C@H](C)c1ccccc1 (stereo partly drawn) [Example 43, 2-{4-[3-Methyl-4-((R)-1-phenyl-ethoxycarbonylamino)-isoxazol-5-yl]-benzyloxy}-3-phenyl-propionic Acid]
1000 to 50000 nM | CC(OC(=O)Nc1c(C#N)cnn1-c1ccc(-c2ccc(CC(=O)O)cc2)cc1)c1ccccc1Cl (stereo not shown) [Example 46, 2-[4-[4-[5-[1-(2-chlorophenyl)ethoxycarbonylamino]-4-cyano-pyrazol-1-yl]phenyl]phenyl]acetic Acid]
300 to 1000 nM | Cc1c(NC(=O)O[C@H](C)c2ccccc2)c(-c2ccc(-c3ccc(C4(C(=O)O)CC4)cc3)cc2)nn1C [Example 47, (R)-1-[4-[4-[1,5-dimethyl-4-(1-phenylethoxycarbonylamino)pyrazol-3-yl]phenyl]phenyl]cyclopropane Carboxylic Acid]
1000 to 50000 nM | Cc1nn(C)c(-c2ccc(-c3ccc(C4(C(=O)O)CC4)cc3)cc2)c1NC(=O)O[C@H](C)c1ccccc1 [Example 48, (R)-1-[4-[4-[2,5-dimethyl-4-(1-phenylethoxycarbonylamino)pyrazol-3-yl]phenyl]phenyl]cyclopropane Carboxylic Acid]
< 300 nM | C[C@@H](OC(=O)Nc1c(F)cnn1-c1ccc(-c2ccc(C3(C(=O)O)CC3)c(F)c2)cc1)c1ccccc1Cl [Example 49, (R)-1-(4′-{5-[1-(2-Chloro-phenyl)-ethoxycarbonylamino]-4-fluoro-pyrazol-1-yl}-3-fluoro-biphenyl-4-yl)-cyclopropanecarboxylic Acid]
< 300 nM | C[C@@H](OC(=O)Nc1c(F)cnn1-c1ccc(-c2ccc(C3(C(=O)O)CC3)cc2F)cc1)c1ccccc1Cl [Example 50, (R)-1-(4′-{5-[1-(2-Chloro-phenyl)-ethoxycarbonylamino]-4-fluoro-pyrazol-1-yl}-2-fluoro-biphenyl-4-yl)-cyclopropanecarboxylic Acid]
< 300 nM | C[C@@H](OC(=O)Nc1c(F)cnn1-c1ccc(-c2ccc(C3(C(=O)O)CC3)cc2Cl)cc1)c1ccccc1Cl [Example 51, (R)-1-(2-Chloro-4′-{5-[1-(2-chloro-phenyl)-ethoxycarbonylamino]-4-fluoro-pyrazol-1-yl}-biphenyl-4-yl)-cyclopropanecarboxylic Acid]
< 300 nM | Cc1cc(C2(C(=O)O)CC2)ccc1-c1ccc(-n2ncc(F)c2NC(=O)O[C@H](C)c2ccccc2Cl)cc1 [Example 52, (R)-1-(4′-{5-[1-(2-Chloro-phenyl)-ethoxycarbonylamino]-4-fluoro-pyrazol-1-yl}-2-methyl-biphenyl-4-yl)-cyclopropanecarboxylic Acid]
